{"source": "patent US20160136295A1", "about": "“BIOMARKERS FOR TREATMENT WITH ANTI-TUBULIN CHEMOTHERAPEUTIC COMPOUNDS” (GENENTECH, INC., priority 2012, published 2016)", "key": {"Mcl-1": {"test_system": "Mcl-1", "test": "Mcl-1 protein level / degradation in mitotic arrest (western blot of synchronized cells)", "assay_type": "cell-based, human", "details": "for maintenance of mitotic arrest (cdc27 phosphorylation): CGP74514A 2 μM or roscovitine 2.5 μM", "procedure": "(§1) The viability of cancer cell lines, and MEFs in which genes encoding IAPs had been knocked out, was analysed by using the CellTiter-Glo Luminescent Cell Viability Assay® (Promega). Cells were treated in triplicate with anti-tubulin agents for the indicated times, using dimethylsulphoxide treatment as a control. The viability of BCL2-family-member-null MEFs was analysed by propidium iodide staining, as described previously (Chen, L. et al. (2005) Molecular cell 17:393-403), after treatment with anti-tubulin agents for 48 h. Cell synchronization was achieved by culture either in serum-free medium for 12-16 h or in medium containing 2 mM thymidine for 18-24 h, release from the thymidine block with three washes in PBS, followed by culture for 8-12 h in complete growth media (compositions are described in the Supplementary Information). Cells then underwent a second thymidine block for 16-20 h, three further washes in PBS and release into complete medium containing the indicated reagents. To block MCL1 degradation, […] MG132 was added as cells entered mitotic arrest, as assessed by visual inspection. See the Examples for full methods.\n(§2) Western blotting was performed essentially as described (Wertz, I. E. et al. (2004) Science (New York, N.Y 303:1371-1374). In brief, cells were lysed in corrected FLAG elution buffer (CFEB) (19.17 mM Tris (pH 7.5), 916.7 μM MgCl2, 92.5 mM NaCl and 0.1% Triton X-100) with protease and phosphatase inhibitors; in some cases 6 M urea was added. Cleared lysates were quantitated and equal amounts of proteins were reduced, alkylated, separated by SDS-PAGE, and transferred onto PVDF membranes (Invitrogen) following standard procedures. Western blotting was performed as recommended by the respective antibody manufacturers. Patient tissue and xenograft samples were lysed in 5× volume of CFEB with protease inhibitors using Fast prep 24 (MP Biologicals). Tissue lysates were cleared and 40 μg total protein was prepared for western blotting analysis as described above. Immunoprecipitations were performed with the indicated antibodies as described (Willis, S. N. et al. (2007) Science (New York, N.Y 315:856-859; Wertz, I. E. et al. (2004) Science (New York, N.Y 303:1371-1374). PP2A activity was performed on PP2A or Mcl-1 immunoprecipitates as recommended by the manufacturer (Upstate)"}, "myc-Mcl-1 / FLAG-FBW7": {"test_system": "myc-Mcl-1 / FLAG-FBW7", "test": "Recruitment of myc-Mcl-1 to FLAG-FBW7 in mitotic arrest (immunoprecipitation, HeLa cells)", "assay_type": "cell-based, human", "details": "HeLa released into paclitaxel; agent 1 hour then 3 hour 25 μM MG-132; SP600125 25 μM, SB203580 2.65 μM, CGP74514A, roscovitine 2.5 μM", "procedure": "The indicated constructs were expressed in HeLa cells with or without scramble or cdc20 RNAi, and then synchronized and released into paclitaxel. […] Cells were subsequently collected and processed as indicated.\nas §2"}, "[1]": {"test_system": "murine embryonic fibroblasts (MEFs)", "test": "Viability of BCL2-family-member-null MEFs by propidium iodide staining after anti-tubulin agents", "assay_type": "cell-based", "details": "for killing (cell viability): treated 48 hours; for sensitivity to killing: 48 hours", "procedure": "as §1"}, "[2]": {"test_system": "MEFs in which genes encoding IAPs had been knocked out", "test": "Cell viability of MEF cell lines deficient in IAP genes (CellTiter-Glo)", "assay_type": "cell-based, murine", "details": "IAP-deficient MEFs plus siRNA, 48 hours", "procedure": "as §1"}, "[3]": {"test_system": "FBW7-WT, FBW7−/− or FBW7 mutant colon cancer cell lines (HCT116, DLD1)", "test": "Cell viability of colon cancer cell lines by FBW7 status (CellTiter-Glo)", "assay_type": "cell-based, human", "details": "48 hours", "procedure": "as §1\nwere synthesized by Ambion and experiments were performed as described (Huang, H. C., et al (2009) Cancer cell 16:347-358). For viability experiments using stable cell lines transfected with doxycycline-inducible shRNAs to LacZ or Mcl-1 ORF, cells were plated in 10 cm2 plates with 0.2 μg/mL doxycycline for two days. On the third day, cells were plated in to 96-well plates at 5×10^3 per well for viability assays as described above. […] For western blot analysis, cells were harvested at indicated time points and processed as described above."}, "[4]": {"test_system": "ovarian cancer cell lines", "test": "Cell viability of ovarian cancer cell lines by FBW7 status", "assay_type": "cell-based, human", "details": "FBW7-wild-type ovarian cancer cell lines that undergo mitotic arrest, relative to FBW7-mutant cells", "procedure": "as §1"}, "[5]": {"test_system": "ovarian cancer cell lines", "test": "Mitotic arrest in asynchronous ovarian cancer cell lines (western blot, phospho-histone H3 ELISA)", "assay_type": "cell-based, human", "details": "unsynchronized cell lines, 200 nM paclitaxel", "procedure": "The unsynchronized cell lines (with FBW7 status specified in parentheses) were treated with 200 nM paclitaxel and were subsequently collected at the indicated time points for western blot and phospho-histone H3 ELISA analysis."}, "HCT116 cells": {"test_system": "HCT116 cells", "test": "Live time-lapse imaging of mitotic fate", "assay_type": "cell-based, human", "procedure": "HCT116 parental or FBW7−/− cells expressing shLacZ or shMcl-1 were plated at 15,000-30,000 cells per well in 96-well μ-plates (ibidi GmbH) and infected with GFP-H2B baculovirus (Invitrogen) 24 hours prior to adding paclitaxel or vincristine. Cells were imaged live at 37° C. with 5% CO2 using a Nikon TiE® microscope with a Cool Snap® CCD camera (Roper Scientific) and a Plan Apo VC 20× 0.75 NA objective. Three images with 6 μm z-steps were acquired for each position every 10 minutes for 43 hours. Mitotic fate was analyzed manually using NIS-Elements software (Nikon) and numerical data was complied and statistically analyzed using Excel (Microsoft). Fifty mitotic cells were analyzed for each condition and p-values were calculated for the change in the number of cells that exited mitosis or entered apoptosis using the one-tailed Fisher's exact test."}, "[6]": {"test_system": "TOV112D-X1 ovarian tumors", "test": "Ovarian tumor xenografts in vivo", "design": "species or system athymic nu/nu mice", "details": "tumors expressing FBW7-R505L vs FBW7-wild-type; 20 mg/kg intravenous, days 21 and 23 post implant", "procedure": "Wild-type FBW7 TOV112D-X1 ovarian cancer cells expressing either an empty vector (vector) or the R505L point mutant (FBW7-R505L) were resuspended in Matrigel® (BD Biosciences) at a density of 1×10^8 cells/mL, and […] Matrigel® grafts containing 1×10^6 cancer cells were implanted under the kidney capsule of 8-week-old athymic nu/nu mice (Harlan Sprague Dawley). Only one graft was implanted per mouse. Once tumors became palpable on the kidney surface, tumor growth was assessed three times per week via caliper measurements of the entire kidney volume (0.523×length×width×height). On day 21 post-implant, when tumors reached an average volume of 700 mm^3, paclitaxel (APP Pharmaceuticals) was administered to both FBW7-WT and FBW7-R505L tumor groups via intravenous tail vein injection at 20 mg/kg in 5% dextrose water. Paclitaxel administration was repeated on day 23 post-implant. Statistical differences were evaluated using a two-tailed Student's t-test. P values of less than 0.05 were considered significant."}, "[7]": {"test_system": "Granta-519, HCT-116 and HeLa cells", "test": "Mitotic arrest and Mcl-1 degradation with MMAE (FIG. 5)", "assay_type": "cell-based"}}, "note": "Square brackets hold non-standard residues; d marks the D form. Peptide text beside a SMILES is read from it. * marks the point of attachment. Dolaproine = CO[C@@H]([C@@H]1CCCN1)[C@@H](C)C(=O)O; Dil = CC[C@H](C)[C@H](NC)[C@@H](CC(=O)O)OC; X1 = C[C@@H](N*)[C@@H](O)c1ccccc1; NMeV = CN[C@H](C(=O)O)C(C)C", "data": [{"compound": "CC[C@H](CO)Nc1nc(NCc2ccccc2)c2ncn(C(C)C)c2n1", "note": "[roscovitine]", "values": [{"measurement": "maintenance of mitotic arrest (cdc27 phosphorylation)", "setting": "Mcl-1; HeLa released into paclitaxel", "value": "drives cells out of mitotic arrest"}, {"measurement": "recruitment of myc-Mcl-1 to FLAG-FBW7 in mitotic arrest", "setting": "myc-Mcl-1 / FLAG-FBW7", "value": "attenuates recruitment of myc-Mcl-1 to FLAG-FBW7"}]}, {"compound": "CC(=O)O[C@H]1C(=O)[C@@]2(C)[C@H]([C@H](OC(=O)c3ccccc3)[C@]3(O)CC(OC(=O)[C@H](O)[C@@H](NC(=O)c4ccccc4)c4ccccc4)C(C)=C1C3(C)C)[C@]1(OC(C)=O)CO[C@@H]1C[C@@H]2O", "note": "(relative stereo) [paclitaxel, β-(benzoylamino)-α-hydroxy-,6,12b-bis(acetyloxy)-12-(benzoyloxy)-2a,3,4,4a,5,6,9,10,11,12,12a,12b-dodecahydro-4,11-dihydroxy-4a,8,13,13-tetramethyl-5-oxo-7,11-methano-1H-cyclodeca(3,4)benz(1,2-b) oxet-9-ylester,(2aR-(2a-α,4-β,4a-β,6-β,9-α(α-R*,β-S*),11-α,12-α,12α-α,2b-α))-benzenepropanoic acid]", "values": [{"measurement": "killing (cell viability)", "setting": "[1]; BAX−/−/BAK−/− MEFs", "value": "resistant"}, {"measurement": "sensitivity to killing", "setting": "[1]; BCL-X−/− MEFs vs wild-type", "value": "more sensitive than wild-type cells"}, {"measurement": "sensitivity to killing", "setting": "[1]; MCL-1−/− MEFs vs wild-type", "value": "enhanced sensitivity"}, {"measurement": "killing (cell viability)", "setting": "[1]; wild-type MEFs", "value": "significantly more sensitive"}, {"measurement": "cell sensitivity upon ablation of IAP family proteins", "setting": "[2]", "value": "does not enhance cell sensitivity"}, {"measurement": "Mcl-1 protein level in mitotic arrest", "setting": "Mcl-1; synchronized cells (HeLa) released into the agent", "value": "declined markedly"}, {"measurement": "sensitivity to drug-induced death upon reducing Mcl-1 protein", "setting": "[3]; FBW7-null HCT116 cells, doxycycline-inducible Mcl-1 shRNA", "value": "restored their sensitivity"}, {"measurement": "resistance to drug-induced cell death", "setting": "[3]; FBW7-null cell lines relative to wild-type cells", "value": "more resistant"}, {"measurement": "resistance to drug-induced cell death", "setting": "[3]; FBW7−/− or FBW7 mutant colon cancer cell lines relative to FBW7-WT", "value": "more resistant"}, {"measurement": "sensitivity (cell viability)", "setting": "[4]", "value": "sensitive"}, {"measurement": "mitotic arrest", "setting": "[5]", "value": "arrested in mitosis"}, {"measurement": "drug-induced apoptosis upon decreasing Mcl-1 protein levels", "setting": "HCT116 cells; FBW7-null cells with Mcl-1 shRNA vs control shRNA", "value": "enhanced"}, {"measurement": "exit from drug-induced mitotic arrest (mitotic slippage)", "setting": "HCT116 cells; FBW7-null vs FBW7-wild-type cells", "value": "more readily"}, {"measurement": "tumor resistance (tumor volume growth curves)", "setting": "[6]", "value": "more resistant"}]}, {"compound": "CC[C@H](C)[C@@H]([C@@H](CC(=O)N1CCC[C@H]1[C@H](OC)[C@@H](C)C(=O)N[C@H](C)[C@@H](O)c1ccccc1)OC)N(C)C(=O)[C@@H](NC(=O)[C@@H](NC)C(C)C)C(C)C", "note": "[MMAE, (S)—N-((3R,4S,5S)-1-((S)-2-((1R,2R)-3-(((1S,2R)-1-hydroxy-1-phenylpropan-2-yl)amino)-1-methoxy-2-methyl-3-oxopropyl)pyrrolidin-1-yl)-3-methoxy-5-methyl-1-oxoheptan-4-yl)-N,3-dimethyl-2-((S)-3-methyl-2-(methylamino)butanamido)butanamide] (H-[NMeV]V[Dil][Dolaproine]-X1)", "values": [{"measurement": "mitotic arrest (phospho-cdc27)", "setting": "[7]", "value": "promotes mitotic arrest"}, {"measurement": "Mcl-1 degradation", "setting": "[7]; subsequent to mitotic arrest", "value": "Mcl-1 degradation"}]}, {"compound": "CCn1cnc2c(Nc3cccc(Cl)c3)nc(N[C@@H]3CCCC[C@@H]3N)nc21", "note": "[CGP74514A]", "values": [{"measurement": "maintenance of mitotic arrest (cdc27 phosphorylation)", "setting": "Mcl-1; HeLa released into paclitaxel", "value": "drives cells out of mitotic arrest"}, {"measurement": "Mcl-1 degradation in mitotic arrest", "setting": "Mcl-1; HeLa released into paclitaxel, CGP74514A 2 μM, FR180204 2 μM, SP600125 25 μM, SB203580 2 μM added on entry into mitotic arrest", "value": "attenuate Mcl-1 degradation"}, {"measurement": "recruitment of myc-Mcl-1 to FLAG-FBW7 in mitotic arrest", "setting": "myc-Mcl-1 / FLAG-FBW7", "value": "attenuates recruitment of myc-Mcl-1 to FLAG-FBW7"}]}]}
